The source of these data is patent US20260265238A1, “COMPOUNDS AND PHARMACEUTICAL COMPOSITIONS THAT DEGRADE SWI/SNF-RELATED MATRIX-ASSOCIATED ACTIN-DEPENDENT REGULATOR OF CHROMATIN SUBFAMILY A” (Plexium, Inc., priority 2023, published 2026).

The target of experiment [1] is T1, SMARCA2-HiBiT HeLa cells (protein which is expressed from the SMARCA2 gene) (Homo sapiens, UniProt P51531).
T1 construct: protein which is expressed from the SMARCA2 and SMARCA4 genes; host or cells: HeLa (SMARCA2-HiBiT engineered line)
T1 sequence (P51531 whole entry): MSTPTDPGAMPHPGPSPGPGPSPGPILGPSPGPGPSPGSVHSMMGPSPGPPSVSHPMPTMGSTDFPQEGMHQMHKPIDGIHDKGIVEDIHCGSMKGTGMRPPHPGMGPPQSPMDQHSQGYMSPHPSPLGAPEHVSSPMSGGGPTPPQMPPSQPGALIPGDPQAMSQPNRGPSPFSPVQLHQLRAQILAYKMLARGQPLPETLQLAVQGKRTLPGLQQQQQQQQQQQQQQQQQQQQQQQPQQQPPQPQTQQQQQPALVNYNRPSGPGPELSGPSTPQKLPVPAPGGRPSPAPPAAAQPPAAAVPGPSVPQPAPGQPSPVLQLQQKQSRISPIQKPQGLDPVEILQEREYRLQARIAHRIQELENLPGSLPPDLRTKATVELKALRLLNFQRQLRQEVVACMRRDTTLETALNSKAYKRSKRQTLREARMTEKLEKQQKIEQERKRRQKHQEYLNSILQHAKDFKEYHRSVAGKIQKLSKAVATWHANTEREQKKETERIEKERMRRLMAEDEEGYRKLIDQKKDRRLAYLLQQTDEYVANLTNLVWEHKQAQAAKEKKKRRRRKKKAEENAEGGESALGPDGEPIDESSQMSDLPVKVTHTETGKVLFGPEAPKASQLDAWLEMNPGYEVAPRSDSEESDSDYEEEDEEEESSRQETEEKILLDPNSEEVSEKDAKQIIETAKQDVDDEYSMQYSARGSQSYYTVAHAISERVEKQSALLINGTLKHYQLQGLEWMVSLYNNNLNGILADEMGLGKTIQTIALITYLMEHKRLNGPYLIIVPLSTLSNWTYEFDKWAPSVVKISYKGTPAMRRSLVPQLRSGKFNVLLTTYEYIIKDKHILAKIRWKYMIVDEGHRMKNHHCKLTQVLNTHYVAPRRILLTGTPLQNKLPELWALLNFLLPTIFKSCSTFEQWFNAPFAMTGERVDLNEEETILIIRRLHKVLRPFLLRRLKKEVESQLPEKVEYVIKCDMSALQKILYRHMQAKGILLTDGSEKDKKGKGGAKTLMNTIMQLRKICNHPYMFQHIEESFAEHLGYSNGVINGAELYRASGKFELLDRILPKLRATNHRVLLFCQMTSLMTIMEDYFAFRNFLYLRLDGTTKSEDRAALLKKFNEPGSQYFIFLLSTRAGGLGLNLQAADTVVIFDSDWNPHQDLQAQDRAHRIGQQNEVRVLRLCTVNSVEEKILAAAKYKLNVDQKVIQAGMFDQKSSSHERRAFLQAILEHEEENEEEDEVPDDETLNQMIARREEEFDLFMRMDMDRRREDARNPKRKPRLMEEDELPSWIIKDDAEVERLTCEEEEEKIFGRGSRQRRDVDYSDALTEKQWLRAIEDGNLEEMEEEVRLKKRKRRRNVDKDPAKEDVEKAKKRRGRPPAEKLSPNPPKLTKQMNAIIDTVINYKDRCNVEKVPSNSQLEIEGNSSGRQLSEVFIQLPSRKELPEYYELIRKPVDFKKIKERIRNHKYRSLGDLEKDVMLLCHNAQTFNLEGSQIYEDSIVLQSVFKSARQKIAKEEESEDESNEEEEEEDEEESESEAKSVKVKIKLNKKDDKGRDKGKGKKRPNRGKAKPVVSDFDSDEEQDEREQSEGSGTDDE
As to the kind of experiment: SMARCA2 degradation assay (HiBiT-fusion HeLa cell line, 24 h, luminescence). It counts as cell-based. The method, boiled down: (§1)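 HeLa cells carrying HiBiT-tagged SMARCA2 or SMARCA4 were seeded at 8,000 cells/well, allowed to attach overnight at 37° C., then given compounds in a 10-point dilution series (typically 10 μM to 300 pM) for 24 hours at 37° C. Remaining tagged protein was read by HiBiT lytic luminescence, and DC50s came from dose-response curves.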
(With HiBiT, luminescence reflects the tagged protein that the partner subunit can reach.)

Experiment [2] concerns the target T2, SMARCA4-HiBiT HeLa cells (protein which is expressed from the SMARCA4 gene) (Homo sapiens, UniProt P51532).
T2 construct: protein which is expressed from the SMARCA2 and SMARCA4 genes; host or cells: HeLa (SMARCA4-HiBiT engineered line)
As to the kind of experiment: SMARCA4 degradation assay (HiBiT-fusion HeLa cell line, 24 h, luminescence). It counts as cell-based. The method, boiled down: as §1

T2 sequence (P51532 whole entry): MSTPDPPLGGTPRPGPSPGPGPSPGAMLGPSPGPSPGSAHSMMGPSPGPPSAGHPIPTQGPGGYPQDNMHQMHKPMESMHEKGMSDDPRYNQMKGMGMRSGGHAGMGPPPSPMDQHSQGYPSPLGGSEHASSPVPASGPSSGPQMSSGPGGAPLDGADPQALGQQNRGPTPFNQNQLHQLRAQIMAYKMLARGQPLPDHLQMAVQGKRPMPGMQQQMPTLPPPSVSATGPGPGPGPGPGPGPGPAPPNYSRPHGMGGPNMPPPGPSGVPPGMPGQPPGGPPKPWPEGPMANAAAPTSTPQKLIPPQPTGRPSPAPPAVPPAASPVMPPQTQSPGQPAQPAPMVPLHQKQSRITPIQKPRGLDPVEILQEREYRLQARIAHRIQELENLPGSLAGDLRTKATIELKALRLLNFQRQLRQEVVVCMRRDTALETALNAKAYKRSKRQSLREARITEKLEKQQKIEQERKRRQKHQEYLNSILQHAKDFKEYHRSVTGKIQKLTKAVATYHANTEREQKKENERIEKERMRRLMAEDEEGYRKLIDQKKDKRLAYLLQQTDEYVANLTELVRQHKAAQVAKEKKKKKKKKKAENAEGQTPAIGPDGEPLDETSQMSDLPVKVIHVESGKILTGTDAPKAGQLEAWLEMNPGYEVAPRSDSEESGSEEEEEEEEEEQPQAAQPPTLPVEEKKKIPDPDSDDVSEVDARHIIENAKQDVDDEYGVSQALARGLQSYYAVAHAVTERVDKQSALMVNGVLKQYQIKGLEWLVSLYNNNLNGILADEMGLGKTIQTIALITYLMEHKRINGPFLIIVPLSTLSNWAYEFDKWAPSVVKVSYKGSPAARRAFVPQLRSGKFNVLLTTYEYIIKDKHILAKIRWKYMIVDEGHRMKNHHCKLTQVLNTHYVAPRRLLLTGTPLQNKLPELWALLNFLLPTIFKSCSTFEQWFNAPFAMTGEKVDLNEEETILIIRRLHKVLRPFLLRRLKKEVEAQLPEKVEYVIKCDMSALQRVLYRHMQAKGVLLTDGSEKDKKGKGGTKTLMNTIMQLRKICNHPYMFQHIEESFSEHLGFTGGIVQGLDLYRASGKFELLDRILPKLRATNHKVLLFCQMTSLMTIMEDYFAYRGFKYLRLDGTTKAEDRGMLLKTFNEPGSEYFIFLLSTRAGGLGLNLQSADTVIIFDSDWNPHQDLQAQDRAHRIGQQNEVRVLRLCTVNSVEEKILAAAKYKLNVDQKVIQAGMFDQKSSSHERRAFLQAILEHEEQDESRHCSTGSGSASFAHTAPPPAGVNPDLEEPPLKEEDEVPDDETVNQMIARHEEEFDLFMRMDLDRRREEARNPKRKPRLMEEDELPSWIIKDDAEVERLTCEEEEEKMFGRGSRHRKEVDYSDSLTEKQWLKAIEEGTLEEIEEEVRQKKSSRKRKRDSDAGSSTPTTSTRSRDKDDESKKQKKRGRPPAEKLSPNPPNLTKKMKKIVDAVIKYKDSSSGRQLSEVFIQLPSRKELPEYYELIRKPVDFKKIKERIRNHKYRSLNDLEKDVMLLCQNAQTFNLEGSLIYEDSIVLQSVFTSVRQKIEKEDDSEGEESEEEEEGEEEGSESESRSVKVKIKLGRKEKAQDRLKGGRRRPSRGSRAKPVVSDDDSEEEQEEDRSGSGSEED

Turning to `CC(C)(C)OC(=O)N1CCC[C@H]1C#Cc1nccc(N2CCCN(c3cc(-c4ccccc4O)nnc3N)CC2)n1` [Compound P-314, tert-butyl (S)-2-[2-(4-{4-[3-amino-6-(o-hydroxyphenyl)-4-pyridazinyl]-1,4-diazepan-1-yl}-2-pyrimidinyl)ethynyl]-1-pyrrolidinecarboxylate], the DC50 (commonly the concentration giving 50% degradation) in experiment [1] was 0.05 to 0.5 µM. Moreover, in experiment [2], the DC50 lay in the range of 0.05 to 0.5 µM and the inhibition (in general, how much of the control response was suppressed) at 1 µM lay within 30 to 70%.

In the case of `Nc1nnc(-c2ccccc2O)cc1N1CCCN(c2ccnc(C#CCN3CC4CCC(C3)O4)n2)CC1` [Compound P-315, 0-{6-amino-5-[4-(2-{3-(8-oxa-3-azabicyclo[3.2.1]oct-3-yl)-1-propynyl}-4-pyrimidinyl)-1,4-diazepan-1-yl]-3-pyridazinyl} phenol], in experiment [1], the DC50 fell in the range of 0.05 to 0.5 µM and the “SMARCA2 % Degradation @ 1 μM” value is given as “++ (++=30-70%)”. In addition, in experiment [2], the 50% degradation concentration (DC50) lay in the range of 0.5 to 5 µM and the inhibition at 1 µM was 30 to 70%.

On to `C[C@H]1COCCN1CC#Cc1nccc(N2CCCN(c3cc(-c4ccccc4O)nnc3N)CC2)n1` [Compound P-316, 0-{5-[4-(2-{3-[(S)-3-methyl-4-morpholinyl]-1-propynyl}-4-pyrimidinyl)-1,4-diazepan-1-yl]-6-amino-3-pyridazinyl}phenol], for which, in experiment [1], the DC50 fell in the range of 0.05 to 0.5 µM and the “SMARCA2 % Degradation @ 1 μM” value is listed as “++ (++=30-70%)”. For the same molecule, in experiment [2], the DC50 is 0.5 to 5 µM and the inhibition at 1 µM was less than 30%.

For the molecule `CC1(C)COCCN1CC#Cc1nccc(N2CCCN(c3cc(-c4ccccc4O)nnc3N)CC2)n1` [Compound P-317, 0-[6-amino-5-(4-{2-[3-(3,3-dimethyl-4-morpholinyl)-1-propynyl]-4-pyrimidinyl}-1,4-diazepan-1-yl)-3-pyridazinyl]phenol], in experiment [1], the DC50 lay in the range of 0.05 to 0.5 µM and the “SMARCA2 % Degradation @ 1 μM” value is given as “++ (++=30-70%)”. In experiment [2], this molecule displayed a DC50 of 0.5 to 5 µM and an inhibition at 1 µM of less than 30%.

Turning to `C[C@@H]1COC[C@H](C)N1CC#Cc1nccc(N2CCCN(c3cc(-c4ccccc4O)nnc3N)CC2)n1` [Compound P-318, 0-{5-[4-(2-{3-[(3R,5S)-3,5-dimethyl-4-morpholinyl]-1-propynyl}-4-pyrimidinyl)-1,4-diazepan-1-yl]-6-amino-3-pyridazinyl}phenol], in experiment [1], the 50% degradation concentration (DC50) is 0.05 to 0.5 µM and the “SMARCA2 % Degradation @ 1 μM” value is “++ (++=30-70%)”. In experiment [2], this molecule returned a DC50 of 0.05 to 0.5 µM and an inhibition at 1 µM of 30 to 70%.

In the case of `C[C@H]1CN(c2ccnc(C#CCN3CCCCC3)n2)CCN1c1cc(-c2ccccc2O)nnc1N` [Compound P-319, 0-(5-{(S)-2-methyl-4-[2-(3-piperidino-1-propynyl)-4-pyrimidinyl]-1-piperazinyl}-6-amino-3-pyridazinyl)phenol], in experiment [1], the 50% degradation concentration (DC50) was less than 0.05 µM and the “SMARCA2 % Degradation @ 1 μM” value is “++ (++=30-70%)”. In experiment [2], the 50% degradation concentration (DC50) was less than 0.05 µM and the inhibition at 1 µM is less than 30%.

Consider `C[C@H](O)C#Cc1nccc(N2CCCN(c3cc(-c4ccccc4O)nnc3N)CC2)n1` [Compound P-321, 0-[5-(4-{2-[(S)-3-hydroxy-1-butynyl]-4-pyrimidinyl}-1,4-diazepan-1-yl)-6-amino-3-pyridazinyl]phenol], for which, in experiment [1], the 50% degradation concentration (DC50) fell in the range of 0.05 to 0.5 µM and the “SMARCA2 % Degradation @ 1 μM” value was “++ (++=30-70%)”. In experiment [2], this molecule returned a DC50 of 0.05 to 0.5 µM and an inhibition at 1 µM of 30 to 70%.

On to `C[C@@H](O)C#Cc1nccc(N2CCCN(c3cc(-c4ccccc4O)nnc3N)CC2)n1` [Compound P-322, 0-[5-(4-{2-[(R)-3-hydroxy-1-butynyl]-4-pyrimidinyl}-1,4-diazepan-1-yl)-6-amino-3-pyridazinyl]phenol], for which, in experiment [1], the DC50 is 0.05 to 0.5 µM and the “SMARCA2 % Degradation @ 1 μM” value is “++ (++=30-70%)”. Further, in experiment [2], the DC50 fell in the range of 0.05 to 0.5 µM and the inhibition at 1 µM fell in the range of 30 to 70%.

Regarding `CSCC#Cc1nccc(N2CCCN(c3cc(-c4ccccc4O)nnc3N)CC2)n1` [Compound P-323, 0-[6-amino-5-(4-{2-[3-(methylthio)-1-propynyl]-4-pyrimidinyl}-1,4-diazepan-1-yl)-3-pyridazinyl]phenol], in experiment [1], the DC50 is 0.05 to 0.5 µM and the “SMARCA2 % Degradation @ 1 μM” value is listed as “++ (++=30-70%)”. In addition, in experiment [2], the DC50 was in the range of 0.05 to 0.5 µM and the inhibition at 1 µM was in the range of 30 to 70%.

For the molecule `Nc1nnc(-c2ccccc2O)cc1N1CCCN(c2ccnc(C#CCNC(=O)NC3CC3)n2)CC1` [Compound P-324, 0-[6-amino-5-(4-{2-[3-(3-cyclopropylureido)-1-propynyl]-4-pyrimidinyl}-1,4-diazepan-1-yl)-3-pyridazinyl]phenol], in experiment [1], the DC50 lay within 0.5 to 5 µM and the “SMARCA2 % Degradation @ 1 μM” value is reported as “++ (++=30-70%)”. In experiment [2], this molecule yielded a DC50 of 0.5 to 5 µM and an inhibition at 1 µM of less than 30%.

Consider `Nc1nnc(-c2ccccc2O)cc1N1CCCN(c2ccnc(C#CCNC(=O)NC3CCC3)n2)CC1` [Compound P-325, 0-[6-amino-5-(4-{2-[3-(3-cyclobutylureido)-1-propynyl]-4-pyrimidinyl}-1,4-diazepan-1-yl)-3-pyridazinyl]phenol], for which, in experiment [1], the 50% degradation concentration (DC50) was in the range of 0.5 to 5 µM and the “SMARCA2 % Degradation @ 1 μM” value is “++ (++=30-70%)”. In experiment [2], the DC50 lay within 0.05 to 0.5 µM and the inhibition at 1 µM lay in the range of 30 to 70%.

On to `CCNC(=O)NCC#Cc1nccc(N2CCCN(c3cc(-c4ccccc4O)nnc3N)CC2)n1` [Compound P-326, 0-[6-amino-5-(4-{2-[3-(3-ethylureido)-1-propynyl]-4-pyrimidinyl}-1,4-diazepan-1-yl)-3-pyridazinyl]phenol], for which, in experiment [1], the half-maximal degradation concentration (DC50) was 0.5 to 5 µM and the “SMARCA2 % Degradation @ 1 μM” value is “++ (++=30-70%)”. For the same molecule, in experiment [2], the half-maximal degradation concentration (DC50) was 0.5 to 5 µM and the inhibition at 1 µM is less than 30%.

Take `CC(C)NC(=O)NCC#Cc1nccc(N2CCCN(c3cc(-c4ccccc4O)nnc3N)CC2)n1` [Compound P-327, 0-[6-amino-5-(4-{2-[3-(3-isopropylureido)-1-propynyl]-4-pyrimidinyl}-1,4-diazepan-1-yl)-3-pyridazinyl]phenol]: in experiment [1], the 50% degradation concentration (DC50) was in the range of 0.5 to 5 µM and the “SMARCA2 % Degradation @ 1 μM” value was “++ (++=30-70%)”. In experiment [2], the DC50 lay in the range of 0.5 to 5 µM and the inhibition at 1 µM was 30 to 70%.

Take `C[C@H]1CN(c2ccnc(C#CCNc3ccn(C)n3)n2)CCN1c1cc(-c2ccccc2O)nnc1N` [Compound P-328, 0-{5-[(S)-2-methyl-4-{2-[3-(1-methyl-3-pyrazolylamino)-1-propynyl]-4-pyrimidinyl}-1-piperazinyl]-6-amino-3-pyridazinyl}phenol]: in experiment [1], the half-maximal degradation concentration (DC50) fell in the range of 0.05 to 0.5 µM and the “SMARCA2 % Degradation @ 1 μM” value is reported as “++ (++=30-70%)”. In experiment [2], this molecule returned a DC50 of 0.05 to 0.5 µM and an inhibition at 1 µM of 30 to 70%.

For `C[C@H]1CN(c2ccnc(C#CCn3cccn3)n2)CCN1c1cc(-c2ccccc2O)nnc1N` [Compound P-329, 0-{5-[(S)-2-methyl-4-{2-[3-(1-pyrazolyl)-1-propynyl]-4-pyrimidinyl}-1-piperazinyl]-6-amino-3-pyridazinyl} phenol], in experiment [1], the DC50 lay in the range of 0.05 to 0.5 µM and the “SMARCA2 % Degradation @ 1 μM” value is given as “++ (++=30-70%)”. Besides, in experiment [2], the half-maximal degradation concentration (DC50) was in the range of 0.05 to 0.5 µM and the inhibition at 1 µM is less than 30%.

Consider `C[C@H]1CN(c2ccnc(C#CCn3cncn3)n2)CCN1c1cc(-c2ccccc2O)nnc1N` [Compound P-330, 0-{5-[(S)-2-methyl-4-{2-[3-(1H-1,2,4-triazol-1-yl)-1-propynyl]-4-pyrimidinyl}-1-piperazinyl]-6-amino-3-pyridazinyl} phenol], for which, in experiment [1], the half-maximal degradation concentration (DC50) lay within 0.05 to 0.5 µM and the “SMARCA2 % Degradation @ 1 μM” value is on record as “++ (++=30-70%)”. Further, in experiment [2], the 50% degradation concentration (DC50) lay in the range of 0.05 to 0.5 µM and the inhibition at 1 µM is less than 30%.

Consider `C[C@@H]1CCN(c2cc(-c3ccccc3O)nnc2N)CCN1c1ccnc(C#CCNc2ccn(C)n2)n1` [Compound P-331, 0-{5-[(R)-5-methyl-4-{2-[3-(1-methyl-3-pyrazolylamino)-1-propynyl]-4-pyrimidinyl}-1,4-diazepan-1-yl]-6-amino-3-pyridazinyl}phenol], for which, in experiment [1], the DC50 was 0.05 to 0.5 µM and the “SMARCA2 % Degradation @ 1 μM” value is listed as “++ (++=30-70%)”. In experiment [2], this molecule came in with a DC50 of 0.05 to 0.5 µM and an inhibition at 1 µM of less than 30%.

In the case of `C[C@@H]1CCN(c2cc(-c3ccccc3O)nnc2N)CCN1c1ccnc(C#CCn2cccn2)n1` [Compound P-332, 0-{5-[(R)-5-methyl-4-{2-[3-(1-pyrazolyl)-1-propynyl]-4-pyrimidinyl}-1,4-diazepan-1-y1]-6-amino-3-pyridazinyl}phenol], in experiment [1], the half-maximal degradation concentration (DC50) is less than 0.05 µM and the “SMARCA2 % Degradation @ 1 μM” value is “++ (++=30-70%)”. For the same molecule, in experiment [2], the DC50 lay within 0.05 to 0.5 µM and the inhibition at 1 µM was less than 30%.

Consider `C[C@@H]1CCN(c2cc(-c3ccccc3O)nnc2N)CCN1c1ccnc(C#CCn2cncn2)n1` [Compound P-333, 0-{5-[(R)-5-methyl-4-{2-[3-(1H-1,2,4-triazol-1-yl)-1-propynyl]-4-pyrimidinyl}-1,4-diazepan-1-y1]-6-amino-3-pyridazinyl} phenol], for which, in experiment [1], the 50% degradation concentration (DC50) was 0.05 to 0.5 µM and the “SMARCA2 % Degradation @ 1 μM” value is reported as “++ (++=30-70%)”. For the same molecule, in experiment [2], the half-maximal degradation concentration (DC50) was in the range of 0.05 to 0.5 µM and the inhibition at 1 µM was less than 30%.

For `C[C@@H]1CCN(c2cc(-c3ccccc3O)nnc2N)CCN1c1ccnc(C#CCN2CCOCC2)n1` [Compound P-334, 0-(5-{(R)-5-methyl-4-[2-(3-morpholino-1-propynyl)-4-pyrimidinyl]-1,4-diazepan-1-yl}-6-amino-3-pyridazinyl)phenol], in experiment [1], the 50% degradation concentration (DC50) was 0.05 to 0.5 µM and the “SMARCA2 % Degradation @ 1 μM” value is recorded as “++ (++=30-70%)”. Besides, in experiment [2], the DC50 fell in the range of 0.05 to 0.5 µM and the inhibition at 1 µM was less than 30%.
